In patent US20250113823A1, “Arthropod Control Compositions” (priority 2022, published 2025):
Where two headings read alike, the source gives them in different places.

Columns and labels:
Aedes aegypti = experiment: Warm Body assay, mosquito landings on treated warm body; format: in vivo; settings: for pest or weed control at 1 %: highest tested concentration, 1% (Table 3); for pest or weed control at 1 % / pest or weed control at 0.04 %: read-out: repellence; for pest or weed control at 0.04 %: intermediate concentration of 0.04% (Table 3); for pest or weed control at 0.0016 %: lowest concentration of 0.0016% (Table 3), read-out: reduce the number of mosquito landings
Procedure: The arthropod controlling effect according to the present invention is determined on mosquitoes using an adapted Warm Body assay as defined in Kröber T, Kessler S, Frei J, Bourquin M, Guerin PM. An in vitro assay for testing mosquito controlling compounds employing a warm body and carbon dioxide as a behavioral activator. J Am Mosq Control Assoc. 2010; 26: 381-386. Further information is provided in the accompanying examples
The controlling effect, repellence & spatial repellence, according to the present invention is determined by testing the Warm Body assay against the yellow fever mosquito, Aedes aegypti Rockefeller strain. […] Observations of controlling efficacy were made on host-seeking females of uniform age, 5 to 10 days old selected as mentioned in the publication mentioned hereinabove. Tested hungry females had access to 10% sugar solution but were not blood-fed. Further information is provided in the accompanying examples.
The published protocol has been adapted in not manually counting the landing mosquitoes but automatically using an automatic counting software, the switch from Anopheles gambiae to A. aegypti led to a decrease of mosquitoes' number placed in the tested cage due to the size difference (i.e. 30 mosquitoes instead of 50) and to an increase of lighting as A. aegypti is a diurnal mosquitoes (i.e. 150 lux instead of 4 lux). Further information is provided in the accompanying examples. […]
(§1) The controlling effect according to the present invention was assessed using an adapted Warm Body assay as defined in Kröber T, Kessler S, Frei J, Bourquin M, Guerin P M. 2010. J Am Mosq Control Assoc. 26: 381-386. In this in-vitro assay the number of mosquito landing on a warm body, simulating an attractive host treated with the tested stimuli, was measured in order to assess the repellence effect.
The published protocol has been adapted as the switch from Anopheles gambiae to Aedes aegypti led to a decrease of mosquitoes placed in the tested cage due to the size difference (i.e. 30 mosquitoes instead of 50) and to an increase of lighting since A. aegypti is a diurnal mosquitoes (i.e. 150 lux instead of 4 lux).
(§2) On the sandblasted glass Petri dish covering the warm body (28.3 cm^2), 100 μL of the compounds diluted at different concentrations in ethanol was applied. The number of mosquito landing on the warm body was counted for each stimulus and pure ethanol (solvent) as control.

Ixodes ricinus = experiment: Warm Plate assay, tick repellence; settings: for pest or weed control at 400 µg/mL / pest or weed control at 2000 µg/mL / pest or weed control at 10000 µg/mL: Ixodes ricinus, read-out: Percentage of repellence of ticks Ixodes ricinus on the warm plate
Anopheles gambiae = experiment: Warm Body assay, mosquito landings on treated warm body; format: in vivo; settings: Anopheles gambiae, read-out: Percentage of repellence of mosquitoes Anopheles gambiae landing on the warm body; for pest or weed control at 4470 µg/mL: 4.47 mg/mL (Table 4); for pest or weed control at 10000 µg/mL: 10 mg/mL (Table 4); for pest or weed control at 178 µg/mL: 0.178 mg/mL (Table 4); for pest or weed control at 267 µg/mL: 0.267 mg/mL (Table 4); for pest or weed control at 400 µg/mL: 0.4 mg/mL (Table 4)
Procedure: Anopheles gambiae is also a model organism as it is anthropophilic and transmits malaria.
as §1, §2

[1] = Aedes aegypti, 0.016 mg/mL (Table 3), read-out: Percentage of repellence of mosquitoes Aedes aegypti landing on the warm body
[2] = Aedes aegypti, 0.4 mg/mL (Table 3), read-out: Percentage of repellence of mosquitoes Aedes aegypti landing on the warm body
[3] = Aedes aegypti, 10 mg/mL (Table 3), read-out: Percentage of repellence of mosquitoes Aedes aegypti landing on the warm body

| Compound | pest or weed control at 16 µg/mL (Aedes aegypti; [1]) [%] | pest or weed control at 400 µg/mL (Aedes aegypti; [2]) [%] | pest or weed control at 10000 µg/mL (Aedes aegypti; [3]) [%] | pest or weed control at 1 % (Aedes aegypti; Aedes aegypti) [%] | pest or weed control at 400 µg/mL (Ixodes ricinus) [%] | pest or weed control at 2000 µg/mL (Ixodes ricinus) [%] | pest or weed control at 10000 µg/mL (Ixodes ricinus) [%] | pest or weed control at 4470 µg/mL (Anopheles gambiae) [%] | pest or weed control at 10000 µg/mL (Anopheles gambiae) [%] | further results |
| --- | --- | --- | --- | --- | --- | --- | --- | --- | --- | --- |
| CCOCc1ccc(O)c(OCC)c1 [compound 1482, 2-ethoxy-4-(ethoxymethyl)phenol] | 31 | 82 | 96 | > 90 | 30.8 | 66.7 | 100 |  |  | pest or weed control at 0.04 % (Aedes aegypti; Aedes aegypti): > 75%; ticks repelled (Ixodes ricinus; concentration of 1% (Table 10)): repel all the ticks |
| CCOc1cc(COC)ccc1O [compound 1271, 2-ethoxy-4-(methoxymethyl)phenol] | 29 | 84 | 96 | > 90 |  |  |  | 95 | 92 | pest or weed control at 0.04 % (Aedes aegypti; Aedes aegypti): > 75% |
| CCCc1ccc2c(c1)OC(C(C)=O)O2 (stereo not drawn) [compound 908, 1-(5-propyl-1,3-benzodioxol-2-yl)ethanone] | 10 | 37 | 85 |  |  |  |  | 74 | 84 | pest or weed control at 178 µg/mL (Anopheles gambiae): 61%; pest or weed control at 267 µg/mL (Anopheles gambiae): 95%; pest or weed control at 400 µg/mL (Anopheles gambiae): 51% |
| C=CCOCc1ccc(O)c(OCC)c1 [compound 1479, 4-[(allyloxy)methyl]-2-ethoxyphenol] | 55 | 89 | 98 | > 90 | 66.7 | 100 | 100 |  |  | pest or weed control at 0.04 % (Aedes aegypti; Aedes aegypti): > 75%; pest or weed control at 0.0016 % (Aedes aegypti; Aedes aegypti): > 50%; ticks repelled (Ixodes ricinus; concentration of 1% (Table 10)): repel all the ticks; ticks repelled (Ixodes ricinus; concentrations of 0.2% and 1% (Table 10)): repelled all ticks; fraction of the tested ticks repelled (Ixodes ricinus; lowest tested concentration of 0.04% (Table 10)): ⅔ |
| C=CCc1cc(OC)c(O)c(OC)c1 [compound 1191, 4-allyl-2,6-dimethoxyphenol] |  |  |  |  | 41.7 | 58.3 | 91.7 |  |  | pest or weed control at 3.2 µg/mL (Aedes aegypti; Aedes aegypti, 0.0032 mg/mL (Table 1), read-out: Percentage of repellence of mosquitoes Aedes aegypti landing on the warm body): 60%; pest or weed control at 7.1 µg/mL (Aedes aegypti; Aedes aegypti, 0.0071 mg/mL (Table 1), read-out: Percentage of repellence of mosquitoes Aedes aegypti landing on the warm body): 52%; pest or weed control at 16 µg/mL (Aedes aegypti; Aedes aegypti, 0.016 mg/mL (Table 1), read-out: Percentage of repellence of mosquitoes Aedes aegypti landing on the warm body): 70%; pest or weed control at 35.7 µg/mL (Aedes aegypti; Aedes aegypti, 0.0357 mg/mL (Table 1), read-out: Percentage of repellence of mosquitoes Aedes aegypti landing on the warm body): 68%; pest or weed control at 53 µg/mL (Aedes aegypti; Aedes aegypti, 0.053 mg/mL (Table 1), read-out: Percentage of repellence of mosquitoes Aedes aegypti landing on the warm body): 67%; pest or weed control at 80 µg/mL (Aedes aegypti; Aedes aegypti, 0.08 mg/mL (Table 1), read-out: Percentage of repellence of mosquitoes Aedes aegypti landing on the warm body): 62%; pest or weed control at 119 µg/mL (Aedes aegypti; Aedes aegypti, 0.119 mg/mL (Table 1), read-out: Percentage of repellence of mosquitoes Aedes aegypti landing on the warm body): 50%; pest or weed control at 178 µg/mL (Aedes aegypti; Aedes aegypti, 0.178 mg/mL (Table 1), read-out: Percentage of repellence of mosquitoes Aedes aegypti landing on the warm body): 86%; pest or weed control at 267 µg/mL (Aedes aegypti; Aedes aegypti, 0.267 mg/mL (Table 1), read-out: Percentage of repellence of mosquitoes Aedes aegypti landing on the warm body): 86%; pest or weed control at 400 µg/mL (Aedes aegypti; Aedes aegypti, 0.4 mg/mL (Table 1), read-out: Percentage of repellence of mosquitoes Aedes aegypti landing on the warm body): 93%; pest or weed control at 598 µg/mL (Aedes aegypti; Aedes aegypti, 0.598 mg/mL (Table 1), read-out: Percentage of repellence of mosquitoes Aedes aegypti landing on the warm body): 98%; pest or weed control at 890 µg/mL (Aedes aegypti; Aedes aegypti, 0.89 mg/mL (Table 1), read-out: Percentage of repellence of mosquitoes Aedes aegypti landing on the warm body): 98%; pest or weed control at 2000 µg/mL (Aedes aegypti; Aedes aegypti, 2 mg/mL (Table 1), read-out: Percentage of repellence of mosquitoes Aedes aegypti landing on the warm body): 97%; pest or weed control at 4470 µg/mL (Aedes aegypti; Aedes aegypti, 4.47 mg/mL (Table 1), read-out: Percentage of repellence of mosquitoes Aedes aegypti landing on the warm body): 98%; pest or weed control at 10000 µg/mL (Aedes aegypti; Aedes aegypti, 10 mg/mL (Table 1), read-out: Percentage of repellence of mosquitoes Aedes aegypti landing on the warm body): 100%; reduce mosquito landing (Aedes aegypti; since the lowest concentrations assessed (Table 1)): ≥ 50% |
| COc1ccc(C(C)=O)c(OC)c1 [compound 1557, 2,4-dimethoxyacetophenone] |  |  |  |  |  |  |  |  |  | Percentage of repellence of mosquitoes Aedes aegypti landing on the warm body (Aedes aegypti; 0.016 mg/mL (Table 3)): 81%; Percentage of repellence of mosquitoes Aedes aegypti landing on the warm body (Aedes aegypti; 0.4 mg/mL (Table 3)): 93%; Percentage of repellence of mosquitoes Aedes aegypti landing on the warm body (Aedes aegypti; 10 mg/mL (Table 3)): 96%; Percentage of repellence of ticks Ixodes ricinus on the warm plate (Ixodes ricinus; 0.4 mg/mL (Table 10)): 25.0%; Percentage of repellence of ticks Ixodes ricinus on the warm plate (Ixodes ricinus; 2 mg/mL (Table 10)): 69.2%; Percentage of repellence of ticks Ixodes ricinus on the warm plate (Ixodes ricinus; 10 mg/mL (Table 10)): 66.7% |
| COc1ccc(OC)c(OC)c1 [compound 1201, 1,2,4-trimethoxybenzene] |  |  |  |  | 0 | 23.1 | 100 |  |  | pest or weed control at 3.2 µg/mL (Aedes aegypti; Aedes aegypti, 0.0032 mg/mL (Table 2), read-out: Percentage of repellence of mosquitoes Aedes aegypti landing on the warm body): 46%; pest or weed control at 16 µg/mL (Aedes aegypti; Aedes aegypti, 0.016 mg/mL (Table 2), read-out: Percentage of repellence of mosquitoes Aedes aegypti landing on the warm body): 82%; pest or weed control at 35.7 µg/mL (Aedes aegypti; Aedes aegypti, 0.0357 mg/mL (Table 2), read-out: Percentage of repellence of mosquitoes Aedes aegypti landing on the warm body): 58%; pest or weed control at 80 µg/mL (Aedes aegypti; Aedes aegypti, 0.08 mg/mL (Table 2), read-out: Percentage of repellence of mosquitoes Aedes aegypti landing on the warm body): 72%; pest or weed control at 178 µg/mL (Aedes aegypti; Aedes aegypti, 0.178 mg/mL (Table 2), read-out: Percentage of repellence of mosquitoes Aedes aegypti landing on the warm body): 63%; pest or weed control at 400 µg/mL (Aedes aegypti; Aedes aegypti, 0.4 mg/mL (Table 2), read-out: Percentage of repellence of mosquitoes Aedes aegypti landing on the warm body): 79%; pest or weed control at 890 µg/mL (Aedes aegypti; Aedes aegypti, 0.89 mg/mL (Table 2), read-out: Percentage of repellence of mosquitoes Aedes aegypti landing on the warm body): 95%; pest or weed control at 2000 µg/mL (Aedes aegypti; Aedes aegypti, 2 mg/mL (Table 2), read-out: Percentage of repellence of mosquitoes Aedes aegypti landing on the warm body): 89%; pest or weed control at 10000 µg/mL (Aedes aegypti; Aedes aegypti, 10 mg/mL (Table 2), read-out: Percentage of repellence of mosquitoes Aedes aegypti landing on the warm body): 96%; decrease the number of mosquito landings (Aedes aegypti; lowest doses tested (0.00032% & 0.0016%) (Table 2)): two folds; ticks repelled (Ixodes ricinus; concentration of 1% (Table 10)): repel all the ticks |
| COc1cc(C(C)=O)ccc1O [compound 1468, 1-(4-hydroxy-3-methoxyphenyl)ethanone] | 64 | 74 | 90 |  |  |  |  | 59 | 79 | pest or weed control at 0.0016 % (Aedes aegypti; Aedes aegypti): > 50% |
| CC(C)c1ccc2c(c1)OCC(=O)CO2 [compound 1232, isopropyl-2H,4H-1,5-benzodioxepin-3-one, 7-] | 0 | 32 | 86 |  |  |  |  | 91 | 86 | pest or weed control at 178 µg/mL (Anopheles gambiae): 27%; pest or weed control at 267 µg/mL (Anopheles gambiae): 34%; pest or weed control at 400 µg/mL (Anopheles gambiae): 65% |
| COc1ccc(CC(=O)O)cc1OC [compound 1564, 2-(3,4-dimethoxyphenyl)acetic acid] | 24 | 69 | 82 |  |  |  |  | 97 | 97 | pest or weed control at 178 µg/mL (Anopheles gambiae): 42%; pest or weed control at 267 µg/mL (Anopheles gambiae): 58%; pest or weed control at 400 µg/mL (Anopheles gambiae): 9% |
| CC=Cc1cc(OC)c(OC)c(OC)c1 [compound 1126, 1,2,3-trimethoxy-5-prop-1-enylbenzene] | 31 | 71 | 90 | > 90 |  |  |  |  |  |  |
| CCOc1c(OC)cccc1OC [compound 2276, 2-ethoxy-1,3-dimethoxybenzene] | 0 | 0 | 98 | > 90 |  |  |  |  |  |  |
